Assays:
[1] = system: genetically-alcoholic rats, UChB strain; test: Anti-alcoholism activity in genetically-alcoholic rats (3 or 6 day treatment); assay type: in vivo, Wistar rats; conditions: for lowered alcohol consumption: vs reference period
Source text: (§1) As an animal model of alcoholic mammals, including human beings, adult Wistar rats of both sexes, belonging to the UChB strain were used. This strain of rats is the result of a long selection at the University of Chile, and rats belonging to it are known to be volunteer consumers of 10% (v/v) aqueous alcohol (cf. J. Mardones and N. Segovia-Riquelme, “Thirty two years of selection of rats by ethanol preference”: UChA and UChB strains”, Neurobehav. Toxicol. and Teratol. 1983, vol. 5, pp. 171–178). Thus, the rats used in these experiments can be considered genetically alcoholic.
Rats were kept in individual cages at 22° C., with alternative 12 h periods of light and darkness. Besides unlimited access to food, they had ad libitum access to water and 10% (v/v) aqueous alcohol. All experiments were double-blind, and results were analyzed using common statistical methods. As changes in alcohol consumption might be influenced by the eagerness of food and/or water intake, both the consumption of food and of water were measured and analyzed. […] In each experiment the following three periods of time were considered:
a) A reference period, consisting of the three days previous to treatment. The measured consumption values were used as reference for comparison purposes.
b) A treatment period, consisting of the three or six days during which aqueous solutions of the tested compound were intra-gastrically administered, always at the same time of the day. N,N′-bis(3-aminopropyl)cyclohexane-1,4-diamine tetramethanesulfonate monohydrate was administered at two doses, 20 mg/kg of body weight and 40 mg/kg, using aqueous solutions of the tested compound of concentrations 10 g/L and 20 g/L, respectively. Dose of 20 mg/kg was tested both for 3 consecutive days and 6 consecutive days. Dose of 40 mg/kg was tested only for 3 consecutive days.
c) A post-treatment period, consisting of the three days immediate after the treatment period, during which measurement were taken in order to establish the duration of the effect and the reversibility of the changes.

[2] = system: genetically-alcoholic rats, UChB strain; test: Anti-alcoholism activity during a prolonged treatment period (30 days); assay type: in vivo, Wistar rats; conditions: 40 mg/kg, treatment period of 30 days
Source text: as §1
Rats were kept in individual cages at 22° C., with alternative 12 h periods of light and darkness. […] All experiments were double-blind, and results were analyzed using common statistical methods. As changes in alcohol consumption might be influenced by the eagerness of food and/or water intake, both the consumption of food and of water were measured and analyzed. […]
(§2) The effect of the administration of N,N′-bis(3-aminopropyl)-cyclohexane-1,4-diamine tetramethanesulfonate monohydrate to Wistar rats of both sexes belonging to the UChB strain, at a dose of 40 mg/kg during a treatment period of 30 days, was assessed in an experiment analogous to the one of Example 4. Individual consumptions of alcohol and water, measured daily, were grouped in cycles of 3 consecutive days, thus reducing data to ten average values.

[3] = system: metabolism of acetaldehyde; test: Assessment of disulfiram-like adverse effect (blood acetaldehyde after ethanol, gas chromatography); assay type: in vivo, Wistar male rats
Description: The possible disulfiram-like adverse effect of N,N′-bis(3-aminopropyl)cyclohexane-1,4-diamine tetramethanesulfonate monohydrate was studied by gas-chromatographic measurements of the blood concentration of acetaldehyde in standard Wistar male rats, after the intraperitoneal administration of 2.76 g/kg of ethanol in the form of 10% (v/v) aqueous solution. Blood samples were taken from the tail (0.5, 1.0 and 2.0 h after ethanol administration) and from the suprahepatic vein (2.0 h after ethanol administration).

[4] = system: genetically-alcoholic rats, UChB strain; test: Anti-alcoholism activity during a post-treatment period (27 days); assay type: in vivo, Wistar rats; conditions: 27 days after the 30-day treatment at 40 mg/kg
Description: as §2
The effect of the administration of N,N′-bis(3-aminopropyl)-cyclohexane-1,4-diamine tetramethanesulfonate monohydrate to Wistar rats of both sexes belonging to the UChB strain, during a post-treatment period of 27 days (9 cycles of 3 days) after the prolonged treatment of Example 5, was assessed in an analogous experiment. […] Therefore, the effect of N,N′-bis(3-aminopropyl)-cyclohexane-1,4-diamine tetramethanesulfonate monohydrate lasts substantially for a long time after a prolonged treatment, without recovering the initial levels of alcohol/water consumption.

Which results are given for `CS(=O)(=O)O.CS(=O)(=O)O.CS(=O)(=O)O.CS(=O)(=O)O.NCCCNC1CCC(NCCCN)CC1.O` (centres unmarked) [N,N′-bis(3-aminopropyl)cyclohexane-1,4-diamine tetramethanesulfonate monohydrate]?
lowered alcohol consumption ([1]; 20 mg/kg intra-gastric for 6 days, first 6 hours after administration, p<0.01): 25%; decrease of alcohol consumption along the post-treatment period ([1]; 40 mg/kg for 3 days, three days after treatment): this decrease was kept along the post-treatment period; lowered alcohol consumption ([1]; 40 mg/kg intra-gastric for 3 days): 27%; decreases of alcohol consumption in the period of 6-24 h ([1]; 6-24 h after administration, compared with first 6 h): smaller; changes in the consumption of both food and water ([1]; 20 or 40 mg/kg, 3 or 6 days): not significant; overall activity as anti-alcoholism agent ([1]; overall results of Example 4): substantial activity as anti-alcoholism agent; decrease in alcohol consumption at the end of the treatment period [2]: 71%; levels of acetaldehyde in blood ([3]; 40 mg/kg oral 2, 6, 8 and 24 h before 2.76 g/kg i.p. ethanol, blood at 0.5, 1.0, 2.0 h): did not raised levels of acetaldehyde in blood; block of the metabolism of acetaldehyde ([3]; conclusion from blood acetaldehyde after ethanol, disulfiram in a control test): does not block the metabolism of acetaldehyde significantly; decrease of alcohol consumption at the end of the post-treatment period [4]: 24%

How did the “block of the metabolism of acetaldehyde” value ([3]; rat, in vivo) turn out when `CCN(CC)C(=S)SSC(=S)N(CC)CC` [disulfiram, tetraethylthiuram disulfide, reference compound] was run?
The value was “contrary to what happens with disulfiram”.

Source: US7026514B2, “Compounds used to treat alcoholism” (Garbil Pharma Investigacion Chile Ltda., priority 2001, dated 2006)
